Counter-ions that a name gives are not always drawn. Like-named read-outs stand apart in the source and are kept apart here.
How the values were obtained:
[1] = system: cGAS activity in THP1 cells (IFNb as marker); assay: Cellular assay to measure cGAS activity (IFNb production in PMA-differentiated THP1 cells stimulated by RDG-Adenovirus-GFP); assay type: cell-based, human; conditions: PMA differentiated, RDG-Adenovirus-GFP 1000 MOI, IFNb AlphaLISA, overnight incubation, read-out: IC50 (μM), Cellular assay for Compounds 95-348
Experimental: Cellular assay to measure cGAS activity: Use THP1 cell line from ATCC to determine inhibition of cGAS activity by test compounds in human cells. Plate cells on 96-well plates at 0.2×10^6/well and differentiate with phorbol myristate acetate (PMA) at 37° C./5% CO2. After 24 hours, replace PMA containing media with media lacking PMA and further incubate overnight. Stimulate cells were then by RDG-Adenovirus-GFP (Vector Biolabs #1768) at 1000 MOI for 4 hours prior to the addition of test compounds. After overnight incubation, transfer 10 μL of the media from each well to a new plate for IFNb analysis as a marker for cGAS activity. Measure quantification of IFNb with an IFNb AlphaLISA Detection kit (Perkin Elmer AL3133F) by mixing the acceptor beads with the cell supernatant followed by the addition of the biotinylated antibody and donor beads. Measure the relative fluorescence signal produced from the interaction of the donor and acceptor beads by a PHERAStar AlphaLISA protocol and evaluate the inhibitory effect of a compound by plotting specific inhibition of IFNb production against log concentration of the test compound. Calculate IC50 values using a 4-parameter non-linear logistic equation (y=(S0+((SInf−S0)/(1+((qAC50/x)^nHill))))).

recombinant human cGAS = recombinant human cGAS (Homo sapiens (Human), UniProt Q8N884); assay: In vitro inhibition assay of cGAS activity (cGAMP production, RapidFire mass spectrometry); assay type: biochemical; conditions: 10 nM recombinant human cGAS, 60 nM 75-bp dsDNA, ATP, GTP, room temperature 3 hours, read-out: IC50 (μM), In vitro inhibition assay for Compounds 95-348
In short: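 Product cGAMP was quantified by RapidFire MS against a difluoro-cGAMP internal standard after a formic acid quench. The reaction contained 10 nM recombinant full-length human cGAS, 75-bp dsDNA (60 nM), ATP and GTP (50 μM) and ran for 3 h at room temperature. IC50 values came from 4-parameter nonlinear regression.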

[2] = Homo sapiens, THP-1, THP1 cells

Chain of recombinant human cGAS (Q8N884 whole entry): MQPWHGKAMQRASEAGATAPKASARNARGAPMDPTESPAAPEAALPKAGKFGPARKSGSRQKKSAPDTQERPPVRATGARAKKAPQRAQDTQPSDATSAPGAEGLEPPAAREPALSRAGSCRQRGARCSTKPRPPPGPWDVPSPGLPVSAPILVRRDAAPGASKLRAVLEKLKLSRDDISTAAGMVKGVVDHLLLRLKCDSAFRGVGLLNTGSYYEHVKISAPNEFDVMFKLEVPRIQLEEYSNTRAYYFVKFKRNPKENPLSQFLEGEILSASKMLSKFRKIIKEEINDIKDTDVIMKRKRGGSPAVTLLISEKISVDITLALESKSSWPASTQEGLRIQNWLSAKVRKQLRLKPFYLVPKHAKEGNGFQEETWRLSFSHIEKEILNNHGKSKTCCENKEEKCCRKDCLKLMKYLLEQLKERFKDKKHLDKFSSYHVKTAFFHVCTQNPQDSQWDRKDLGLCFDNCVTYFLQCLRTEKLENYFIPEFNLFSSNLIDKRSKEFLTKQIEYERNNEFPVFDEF

Question: Which IC50 [1, 2] does the source give for `O[C@H]1CC[C@@H](Oc2cc(Cl)c(Cl)c3[nH]cc(-c4cn[nH]c4)c23)C1` (racemic) [Example 100, Cis-3-((6,7-Dichloro-3-(1H-pyrazol-4-yl)-1H-indol-4-yl)oxy)cyclopentan-1-ol (racemic mixture)] here?
Answer: > 10 µM

Question: And the IC50 (recombinant human cGAS)?
Answer: 0.0356 µM

Question: For `OC[C@@H]1C[C@@H]1Oc1cc(Cl)c(Cl)c2[nH]cc(-c3cn[nH]c3)c12` (racemic) [Example 137, Cis-[2-[[6,7-Dichloro-3-(1H-pyrazol-4-yl)-1H-indol-4-yl]oxy]cyclopropyl]methanol hydrochloride], which IC50 [1, 2] is on record?
Answer: 1.38 µM

Question: And the IC50 (recombinant human cGAS)?
Answer: 0.0165 µM

Question: `O[C@H]1CC[C@H](Nc2cc(Cl)c(Cl)c3[nH]cc(-c4cn[nH]c4)c23)C1` (racemic) [Example 209, trans-3-[[6,7-Dichloro-3-(1H-pyrazol-4-yl)-1H-indol-4-yl]amino]cyclopentanol (racemic mixture)] was tested. Which IC50 [1, 2] did it give?
Answer: 0.351 µM

Question: What about the IC50 (recombinant human cGAS) of the same compound?
Answer: 0.0158 µM

Question: Which results are given for `O[C@@H]1C[C@H](Oc2cc(Cl)c(Cl)c3[nH]cc(-c4cn[nH]c4)c23)[C@@H](O)C1` (racemic) [Example 220, 4-[[6,7-Dichloro-3-(1H-pyrazol-4-yl)-1H-indol-4-yl]oxy]cyclopentane-1,3-diol (racemic mixture)]?
Answer: IC50 [1, 2]: 0.556 µM; IC50 (recombinant human cGAS): 0.0301 µM

Question: Which results are given for `O=C(CO)NC1Cc2c(-c3cn[nH]c3)c3ccc(Cl)c(Cl)c3n2C1` (single isomer, unassigned) [Example 247, N-(5,6-Dichloro-9-(1H-pyrazol-4-yl)-2,3-dihydro-1H-pyrrolo[1,2-a]indol-2-yl)-2-hydroxyacetamide]?
Answer: IC50 ([1]; THP1 cells): 2.73 µM; IC50 (recombinant human cGAS): 0.0146 µM

Question: `O=C(CO)NC1Cc2c(-c3cn[nH]c3)c3ccc(Cl)c(Cl)c3n2C1` (single isomer, unassigned) [Example 248, N-(5,6-Dichloro-9-(1H-pyrazol-4-yl)-2,3-dihydro-1H-pyrrolo[1,2-a]indol-2-yl)-2-hydroxyacetamide] was tested. Which IC50 ([1]; THP1 cells) did it give?
Answer: > 10 µM

Question: What about the IC50 (recombinant human cGAS) of the same compound?
Answer: 0.0396 µM

Question: How did the IC50 [1, 2] turn out when `Cn1ncnc1COCC(=O)N1CCn2c(c(-c3cn[nH]c3)c3c(OCC#N)cc(Cl)c(Cl)c32)C1` [Example 181] was run?
Answer: > 10 µM

Question: How did the IC50 [1, 2] turn out when `OCCn1cc(-n2cc(-c3cn[nH]c3)c3ccc(Cl)cc32)nn1` [Example 229] was run?
Answer: 2.1 µM

Question: How did the IC50 [1, 2] turn out when `NC1CCn2c1c(-c1cn[nH]c1)c1ccc(Cl)c(Cl)c12` (centres unmarked) [Example 241, 5,6-Dichloro-9-(1H-pyrazol-4-yl)-2,3-dihydro-1H-pyrrolo[1,2-a]indol-1-amine] was run?
Answer: > 10 µM

Question: `O=C1NC(C(=O)N2CCn3c(c(-c4cn[nH]c4)c4ccc(Cl)c(Cl)c43)C2)CCO1` (centres unmarked) [Example 314, 4-(6,7-Dichloro-10-(1H-pyrazol-4-yl)-1,2,3,4-tetrahydropyrazino[1,2-a]indole-2-carbonyl)-1,3-oxazinan-2-one] was tested. Which IC50 (recombinant human cGAS) did it give?
Answer: 0.0491 µM

Question: `O=C1COCCN1CC(=O)N1CCn2c(c(-c3cn[nH]c3)c3ccc(Cl)c(Cl)c32)C1` [Example 315, 4-(2-(6,7-Dichloro-10-(1H-pyrazol-4-yl)-3,4-dihydropyrazino[1,2-a]indol-2(1H)-yl)-2-oxoethyl)morpholin-3-one] was tested. Which IC50 (recombinant human cGAS) did it give?
Answer: 0.0503 µM

Question: How did the IC50 (recombinant human cGAS) turn out when `O=C1CCCN1CC(=O)N1CCn2c(c(-c3cn[nH]c3)c3ccc(Cl)c(Cl)c32)C1` [Example 316, 1-(2-(6,7-Dichloro-10-(1H-pyrazol-4-yl)-3,4-dihydropyrazino[1,2-a]indol-2(1H)-yl)-2-oxoethyl)pyrrolidin-2-one] was run?
Answer: 0.0509 µM

Question: For `COCCOCCC(=O)N1CCn2c(c(-c3cn[nH]c3)c3ccc(Cl)c(Cl)c32)C1` [Example 317, 1-(6,7-Dichloro-10-(1H-pyrazol-4-yl)-3,4-dihydropyrazino[1,2-a]indol-2(1H)-yl)-3-(2-methoxyethoxy)propan-1-one], which IC50 (recombinant human cGAS) is on record?
Answer: 0.0516 µM

Question: Which IC50 (recombinant human cGAS) does the source give for `COCC(=O)N(C)CC(=O)N1CCn2c(c(-c3cn[nH]c3)c3ccc(Cl)c(Cl)c32)C1` [Example 318, N-(2-(6,7-Dichloro-10-(1H-pyrazol-4-yl)-3,4-dihydropyrazino[1,2-a]indol-2(1H)-yl)-2-oxoethyl)-2-methoxy-N-methylacetamide] here?
Answer: 0.0524 µM

Question: How did the IC50 (recombinant human cGAS) turn out when `CN1CC(C(=O)N2CCn3c(c(-c4cn[nH]c4)c4ccc(Cl)c(Cl)c43)C2)CC1=O` (centres unmarked) [Example 319, 4-(6,7-Dichloro-10-(1H-pyrazol-4-yl)-1,2,3,4-tetrahydropyrazino[1,2-a]indole-2-carbonyl)-1-methylpyrrolidin-2-one] was run?
Answer: 0.0534 µM

Question: For `CCN1C(=O)CCC1C(=O)N1CCn2c(c(-c3cn[nH]c3)c3ccc(Cl)c(Cl)c32)C1` (centres unmarked) [Example 320, 5-(6,7-Dichloro-10-(1H-pyrazol-4-yl)-1,2,3,4-tetrahydropyrazino[1,2-a]indole-2-carbonyl)-1-ethylpyrrolidin-2-one], which IC50 (recombinant human cGAS) is on record?
Answer: 0.055 µM

Question: For `CC(=O)N1CC(C(=O)N2CCn3c(c(-c4cn[nH]c4)c4ccc(Cl)c(Cl)c43)C2)C1` [Example 321, 1-(3-(6,7-Dichloro-10-(1H-pyrazol-4-yl)-1,2,3,4-tetrahydropyrazino[1,2-a]indole-2-carbonyl)azetidin-1-yl)ethan-1-one], which IC50 (recombinant human cGAS) is on record?
Answer: 0.0562 µM

Question: How did the IC50 (recombinant human cGAS) turn out when `Cc1noc(COCC(=O)N2CCn3c(c(-c4cn[nH]c4)c4ccc(Cl)c(Cl)c43)C2)n1` [Example 322, 1-(6,7-Dichloro-10-(1H-pyrazol-4-yl)-3,4-dihydropyrazino[1,2-a]indol-2(1H)-yl)-2-((3-methyl-1,2,4-oxadiazol-5-yl)methoxy)ethan-1-one] was run?
Answer: 0.06 µM

Question: Which IC50 (recombinant human cGAS) does the source give for `CN1C(=O)SC(CC(=O)N2CCn3c(c(-c4cn[nH]c4)c4ccc(Cl)c(Cl)c43)C2)C1=O` (centres unmarked) [Example 323, 5-(2-(6,7-Dichloro-10-(1H-pyrazol-4-yl)-3,4-dihydropyrazino[1,2-a]indol-2(1H)-yl)-2-oxoethyl)-3-methylthiazolidine-2,4-dione] here?
Answer: 0.0613 µM

Question: Which IC50 (recombinant human cGAS) does the source give for `CN1C(=O)CCC1CC(=O)N1CCn2c(c(-c3cn[nH]c3)c3ccc(Cl)c(Cl)c32)C1` (centres unmarked) [Example 324, 5-(2-(6,7-Dichloro-10-(1H-pyrazol-4-yl)-3,4-dihydropyrazino[1,2-a]indol-2(1H)-yl)-2-oxoethyl)-1-methylpyrrolidin-2-one] here?
Answer: 0.0626 µM

Question: How did the IC50 (recombinant human cGAS) turn out when `O=C(CCc1ncc(F)cn1)N1CCn2c(c(-c3cn[nH]c3)c3ccc(Cl)c(Cl)c32)C1` [Example 325, 1-(6,7-Dichloro-10-(1H-pyrazol-4-yl)-3,4-dihydropyrazino[1,2-a]indol-2(1H)-yl)-3-(5-fluoropyrimidin-2-yl)propan-1-one] was run?
Answer: 0.0626 µM

Question: For `CN1C(=O)CCC1C(=O)N1CCn2c(c(-c3cn[nH]c3)c3ccc(Cl)c(Cl)c32)C1` (centres unmarked) [Example 326, 5-(6,7-Dichloro-10-(1H-pyrazol-4-yl)-1,2,3,4-tetrahydropyrazino[1,2-a]indole-2-carbonyl)-1-methylpyrrolidin-2-one], which IC50 (recombinant human cGAS) is on record?
Answer: 0.0627 µM

Question: How did the IC50 (recombinant human cGAS) turn out when `CN1C(=O)CN(CC(=O)N2CCn3c(c(-c4cn[nH]c4)c4ccc(Cl)c(Cl)c43)C2)C1=O` [Example 327, 1-(2-(6,7-Dichloro-10-(1H-pyrazol-4-yl)-3,4-dihydropyrazino[1,2-a]indol-2(1H)-yl)-2-oxoethyl)-3-methylimidazolidine-2,4-dione] was run?
Answer: 0.0635 µM

Question: Which IC50 (recombinant human cGAS) does the source give for `O=C(CCn1ccnc1)N1CCn2c(c(-c3cn[nH]c3)c3ccc(Cl)c(Cl)c32)C1` [Example 328, 1-(6,7-Dichloro-10-(1H-pyrazol-4-yl)-3,4-dihydropyrazino[1,2-a]indol-2(1H)-yl)-3-(1H-imidazol-1-yl)propan-1-one] here?
Answer: 0.0636 µM

Question: How did the IC50 (recombinant human cGAS) turn out when `CCC(=O)NC(C)C(=O)N1CCn2c(c(-c3cn[nH]c3)c3ccc(Cl)c(Cl)c32)C1` (centres unmarked) [Example 329, N-(1-(6,7-Dichloro-10-(1H-pyrazol-4-yl)-3,4-dihydropyrazino[1,2-a]indol-2(1H)-yl)-1-oxopropan-2-yl)propionamide] was run?
Answer: 0.0682 µM

Question: How did the IC50 (recombinant human cGAS) turn out when `CN(C)C1(CC(=O)N2CCn3c(c(-c4cn[nH]c4)c4ccc(Cl)c(Cl)c43)C2)COC1` [Example 330, 1-(6,7-Dichloro-10-(1H-pyrazol-4-yl)-3,4-dihydropyrazino[1,2-a]indol-2(1H)-yl)-2-(3-(dimethylamino)oxetan-3-yl)ethan-1-one] was run?
Answer: 0.0801 µM

Question: `CN1C(=O)CCCC1C(=O)N1CCn2c(c(-c3cn[nH]c3)c3ccc(Cl)c(Cl)c32)C1` (centres unmarked) [Example 331, 6-(6,7-Dichloro-10-(1H-pyrazol-4-yl)-1,2,3,4-tetrahydropyrazino[1,2-a]indole-2-carbonyl)-1-methylpiperidin-2-one] was tested. Which IC50 (recombinant human cGAS) did it give?
Answer: 0.083 µM

Question: Which IC50 (recombinant human cGAS) does the source give for `COCC(=O)NC(C)C(=O)N1CCn2c(c(-c3cn[nH]c3)c3ccc(Cl)c(Cl)c32)C1` (centres unmarked) [Example 333, N-(1-(6,7-Dichloro-10-(1H-pyrazol-4-yl)-3,4-dihydropyrazino[1,2-a]indol-2(1H)-yl)-1-oxopropan-2-yl)-2-methoxyacetamide] here?
Answer: 0.0918 µM

Question: Which IC50 (recombinant human cGAS) does the source give for `COC1(C(=O)N2CCn3c(c(-c4cn[nH]c4)c4ccc(Cl)c(Cl)c43)C2)CCOC1` (centres unmarked) [Example 334, (6,7-Dichloro-10-(1H-pyrazol-4-yl)-3,4-dihydropyrazino[1,2-a]indol-2(1H)-yl)(3-methoxytetrahydrofuran-3-yl)methanone] here?
Answer: 0.0985 µM

From US20230391786A1, “cGAS INHIBITORS” (Eli Lilly and Company, priority 2022, published 2023)
